Values quoted from earlier work in patent publication US20100105761A1, “TREATMENT OF PAIN THROUGH EXPRESSION OF OPIOID RECEPTORS” (priority 2006, published 2010).
Where two headings read alike, the source gives them in different places.

Experiments:
TMJ area = settings: rats, dose dependent
masseter muscle [1] = settings: rat
masseter muscle [2] = settings: human
μ receptor [3] = system: μ receptor
TMJ = settings: placed into the TMJ of cats
μ receptor [4] = settings: in vivo

## N[C@@H](CCC(=O)O)C(=O)O [glutamate]
TMJ area
  EMG activity after injection into the TMJ area: induced a prolonged increase in EMG activity
Masseter muscle [1]
  masseter muscle activity, female versus male: evoked higher masseter muscle activity in female than males
Masseter muscle [2]
  masseter muscle activity, female versus male: evoked higher masseter muscle activity in female than males

## CC(=O)Oc1ccc2c3c1O[C@H]1[C@@H](OC(C)=O)C=C[C@H]4[C@@H](C2)N(C)CC[C@@]341 [heroin]
μ receptor [3]; CXBX strain
  antinociception in mice of the CXBX strain: potently antinociceptive
μ receptor [3]; MOR-1 knockout, exon-1
  antinociception in MOR-1 knockout mice, exon-1 disrupted: still produce antinociception

## NCCc1c[nH]cn1 [histamine]
TMJ
  EMG activity in the temporal, digastric and genioglossus muscles: increase in electromyographic (EMG) activity

## C=CCN1CC[C@]23c4c5ccc(O)c4O[C@H]2/C(=N\N)CC[C@@]3(O)[C@H]1C5 [naloxazone]
μ1-site
  effect on binding of radioligands to the μ1-site: abolish the binding of radioligands
μ receptor [4]
  blockade of morphine-induced antinociception: selectively blocked
  blockade of morphine-induced respiratory depression: did not block
  blockade of the induction of morphine dependence: did not block

## C=CCN1CC[C@]23c4c5ccc(O)c4O[C@H]2/C(=N/N=C2\CC[C@@]4(O)[C@H]6Cc7ccc(O)c8c7[C@@]4(CCN6CC=C)[C@H]2O8)CC[C@@]3(O)[C@H]1C5 [naloxonazine]
μ1-site
  effect on binding of radioligands to the μ1-site: abolish the binding of radioligands

## [Cl-].[K+] [potassium chloride]
TMJ
  EMG activity in the temporal, digastric and genioglossus muscles: increase in electromyographic (EMG) activity
